Test results published in ChEMBL document CHEMBL1795207, “Syntheses of cellotriose and cellotetraose analogues as transition state mimics for mechanistic studies of cellulases” (Bioorg Med Chem, 2011).

Key:
Endoglucanase-5 [1] = target: T1, Endoglucanase-5 (Mycothermus thermophilus, UniProt P43316); assay: Binding affinity to Humicola insolens NCE5 assessed as dissociation constant at pH 3.0 and at 59 degC by differential scanning calorimetry
T1 sequence (P43316 whole entry): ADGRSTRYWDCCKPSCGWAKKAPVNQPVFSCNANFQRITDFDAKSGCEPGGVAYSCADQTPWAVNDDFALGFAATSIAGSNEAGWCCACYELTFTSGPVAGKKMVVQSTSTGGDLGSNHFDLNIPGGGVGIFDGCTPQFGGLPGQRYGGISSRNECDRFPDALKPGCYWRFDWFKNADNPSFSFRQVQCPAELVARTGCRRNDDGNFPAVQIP

Endoglucanase-5 [2] = target: T1, Endoglucanase-5; assay: Binding affinity to Humicola insolens NCE5 assessed as dissociation constant at pH 4

Row | Structure (SMILES) | Ki (Endoglucanase-5 [1]) | Ki (Endoglucanase-5 [2])
1 | CO[C@@H]1O[C@H](CO)[C@@H](S[C@@H]2C=C(CO)[C@@H](O[C@@H]3O[C@H](CO)[C@@H](O)[C@H](O)[C@H]3O)[C@H](O)[C@H]2O)[C@H](O)[C@H]1O | 29 mM | –
2 | CO[C@H]1O[C@H](CO)[C@@H](S[C@@H]2O[C@H](CO)[C@@H](O[C@@H]3O[C@H](CO)[C@@H](O)[C@H](O)[C@H]3O)[C@H](O)[C@H]2O)[C@H](O)[C@H]1O | > 30 mM | –
3 | CO[C@H]1O[C@H](CO)[C@@H](S[C@@H]2C=C(CO)[C@@H](O[C@@H]3O[C@H](CO)[C@@H](O)[C@H](O)[C@H]3O)[C@H](O)[C@H]2O)[C@H](O)[C@H]1O | 25 mM | –

Results, then the molecule that gave them:

Row | Ki (Endoglucanase-5 [1]) | Ki (Endoglucanase-5 [2]) | Structure (SMILES)
4 | > 30 mM | – | CO[C@@H]1O[C@H](CO)[C@@H](S[C@@H]2O[C@H](CO)[C@@H](O[C@@H]3O[C@H](CO)[C@@H](O)[C@H](O)[C@H]3O)[C@H](O)[C@H]2O)[C@H](O)[C@H]1O
5 | – | 420 µM | O=C[C@H](O)[C@@H](O)[C@H](O[C@@H]1O[C@H](CO)[C@@H](O[C@@H]2O[C@H](CO)[C@@H](O[C@@H]3O[C@H](CO)[C@@H](O[C@@H]4O[C@H](CO)[C@@H](O[C@@H]5O[C@H](CO)[C@@H](O)[C@H](O)[C@H]5O)[C@H](O)[C@H]4O)[C@H](O)[C@H]3O)[C@H](O)[C@H]2O)[C@H](O)[C@H]1O)[C@H](O)CO [CELLOHEXOSE]
6 | 1.6 mM | – | CO[C@@H]1O[C@H](CO)[C@@H](O[C@@H]2O[C@H](CO)[C@@H](S[C@@H]3C=C(CO)[C@@H](O[C@@H]4O[C@H](CO)[C@@H](O)[C@H](O)[C@H]4O)[C@H](O)[C@H]3O)[C@H](O)[C@H]2O)[C@H](O)[C@H]1O
7 | 3.9 mM | – | CO[C@@H]1O[C@H](CO)[C@@H](O[C@@H]2O[C@H](CO)[C@@H](S[C@@H]3O[C@H](CO)[C@@H](O[C@@H]4O[C@H](CO)[C@@H](O)[C@H](O)[C@H]4O)[C@H](O)[C@H]3O)[C@H](O)[C@H]2O)[C@H](O)[C@H]1O
